Assays:
nicotinic receptors = assay: Binding of compounds to relevant receptor sites (inhibition of L-[^3 H]nicotine binding, rat brain membranes); design: species or system rat (Sprague-Dawley); conditions: inhibition of L-[^3 H]nicotine (10 nM) binding
Description: Rats (Sprague-Dawley) were maintained on a 12 hour light/dark cycle and were allowed free access to water and food supplied by Wayne Lab Blox, Madison, Wis. Animals used in the present studies weighed 200 to 250 g. Brain membrane preparations were obtained from brain tissue of either males or females.
Rats were killed by decapitation following anesthesia with 70% CO2. Brains were removed and placed on an ice-cold platform.
The incubation buffer was Krebs-Ringers HEPES containing 200 mM TRIS buffer, pH 7.5. The binding reaction was terminated by filtration of the protein containing bound ligand onto glass fiber filters (Micro Filtration Systems) that had been soaked in buffer containing 0.5 percent polyethyleneimine. Filtration vacuum was -50 to -100 torr. Each filter was washed five times with 3 ml of ice-cold buffer. […] Nonspecific binding was determined by inclusion of 10 uM nonradioactive nicotine in the incubations.
The inhibition of L-[^3 H]nicotine binding by test compounds was determined by including one of eight different concentrations of the test compound in the incubation.

[1] = biological target: CNS nicotinic receptors (thalamic synaptosomes); assay: Determination of ion flux from thalamic synaptosomes (^86 Rb+ efflux; receptor activation); assay type: biochemical, rat; conditions: for Receptor Activation Emax: percent of Emax for tetramethylammonium
Description: Determination of ion flux from thalamic synaptosomes
Rat brains were dissected and midbrain (thalamus and mesencephalon) removed. The midbrain was then placed into a tube on ice, homogenized, and centrifuged at 2800 rpm for 10 minutes. The supernatant was collected and centrifuged for another 20 minutes at 9650 rpm The resulting pellet was resuspended by trituration in 700 ul ice cold perfusion buffer. Synaptosomes were then loaded with ^86 Rb+ Ion efflux was determined using the methods of Marks et al., J. Pharmacol. Exp. Ther., Vol. 264, pp. 427-436 (1993). Total efflux was determined by subtraction of basal release from release at stimulation (total peak release). The ratio of the peak to baseline (Rp) was calculated for each concentration. A tetramethylammonium control (i.e., a full agonist to the receptor of interest) is used in each assay to compare each agonist's ability to stimulate rubidium efflux to the control. Emax values are reported as a percent of Emax for tetramethylammonium.

[2] = test system: dopamine release from striatal synaptosomes; assay: Determination of dopamine release (striatal synaptosomes); assay type: biochemical, rat (Sprague-Dawley); conditions: rat striatal synaptosomes; for Dopamine Release Emax: percentage of release obtained with (S)-(-)-nicotine
Description: Determination of Dopamine Release
Dopamine release was measured by preparing synaptosomes from the striatal area of rat brain obtained from Sprague-Dawley rats generally according to the procedures set forth by Nagy et al. J. Neurochem., Vol. 43, pp. 1114-1123 (1984). Striata from 4 rats were homogenized in 2 ml of 0.32M sucrose buffered with 5 mM HEPES (pH 7.5), using a glass-Teflon tissue grinder. The homogenate was diluted to 5 ml with additional homogenization solution and centrifuged at 1,000 ×g for 10 min. This procedure was repeated on the new pellet and the resulting supernatant was centrifuged at 12,000 ×g for 20 min. A 3 layer discontinuous Percoll gradient consisting of 16 percent, 10 percent and 7.5 percent Percoil in HEPES-buffered sucrose was made with the final pellet dispersed in the top layer. After centrifugation at 15,000 ×g for 20 min., the synaptosomes were recovered above the 16 percent layer with a Pasteur pipette, diluted with 8 ml of perfusion buffer (128 mM NaCl, 2.4 mM KCl, 3.2 mM CaCl2, 1.2 KH2 PO4, 1.2 mM MgSO4, 25 mM HEPES pH 7.4, 10 mM dextrose, 1 mM ascorbate, 0.01 mM pargyline), and centrifuged at 15,000 ×g for 20 min. The new pellet was collected and re-suspended in perfusion buffer. The synaptosome suspension was incubated for 10 min. at 37 ° C. [^3 H]-Dopamine (Amersham, 40-60 Ci/mmol) was added to the suspension to give a final concentration of 0.1 uM, and the suspension was incubated for another 5 min. Using this method, 30 to 90 percent of the dopamine was taken up into the synaptosomes, as determined by scintillation counting following filtration through glass fiber filters soaked with 0.5 percent polyethyleneimine. A continuous perfusion system was used to monitor release following exposure to each ligand. Synaptosomes were loaded onto glass fiber filters (Gelman type A/E). Perfusion buffer was dripped onto the filters (0.2-0.3 ml/min.) and pulled through the filters with a peristaltic pump. Synaptosomes were washed with perfusion buffer for a minimum of 20 min. before addition of the ligand. After the addition of 0.2 ml of a solution containing various concentrations of ligand, the perfusate was collected into scintillation vials at 1 min. intervals and the dopamine released was quantified by scintillation counting. Peaks of radioactivity released above background were summed and the average basal release during that time was subtracted from the total. Release was expressed as a percentage of release obtained with an equal concentration of(S)--(-)--nicotine.

[3] = biological target: T1, ganglionic-type neuronal nicotinic receptors (PC12) (Rattus norvegicus, UniProt P04757+P12392); assay: cell-based; conditions: PC12, ^86 Rb^+ efflux, percentage of maximal activation induced by (S)-(-)-nicotine
T1 construct: Ganglionic effects were established on the rat pheochromocytoma clonal line PC12; endogenous in cells; host or cells: PC12 (rat pheochromocytoma)
Source text: Determination of Interaction with Ganglia
Ganglionic effects were established on the rat pheochromocytoma clonal line PC12, which is a continuous clonal cell line of neural crest origin derived from a tumor of the rat adrenal medulla expressing ganglionic-typeneuronal nicotinic receptors (see Whiting et al., Nature, Vol. 327, pp. 515-518 (1987); Lukas, J. Pharmacol. Exp. Ther., Vol. 251, pp. 175-182 (1989); Whiting et al., Mol. Brain Res., Vol. 10, pp. 61-70 (1990)). Discussion concerning the heterogeneity of nicotinic receptors subtypes is set forth in Lukas et al. Internatl. Review Neurobiol., Vol. 34, pp. 25-130 (1992). Acetylcholine nicotinic receptors expressed in rat ganglia share a very high degree of homology with their human counterparts. See, Fomasari et al., Neurosci. Lett., Vol. 111, pp. 351-356 (1990) and Chini et al., Proc. Natl. Acad. Sci. USA, Vol. 89, pp. 1572-1576 (1992 ). Both clonal cell lines described above were maintained in proliferative growth phase according to routine protocols (Bencherif et al., Mol. Cell, Neurosci., Vol. 2, pp. 52-65, (1991 ) and Bencheft et al., J. Pharmacol. Exp. Ther., Vol. 257, pp. 946-953 (1991)). Intact cells on dishes were used for functional studies. Routinely, sample aliquots were reserved for determination of protein concentration using the method of Bradford, Anal. Biochem., Vol. 72, pp. 248-254 (1976) with bovine serum albumin as the standard.
(§1) Nicotinic acetylcholine receptor (nAChR) function was assayed using ^86 Rb^+ efflux according to a method described by Lukas et al., Anal. Biochem., Vol. 175, pp. 212-218 (1.988). […] The medium was removed and ^86 Rb^+ was quantitated using Cerenkov detection (see Lukas et al., Anal. Biochem., Vol. 175, pp. 212-218 (1988)). Specific ion efflux was determined as the difference in isotope efflux between total and non-specific efflux samples. Dose-response curves were plotted and the concentration resulting in half maximal activation of specific ion flux through nicotinic receptors determined for human muscle and rat ganglionic preparations (EC50).

[4] = biological target: T2, muscle-like nicotinic receptors (TE671/RD) (Homo sapiens, UniProt P02708+P07510+Q07001); assay: cell-based; conditions: ^86 Rb^+ efflux, read-out: Muscle Effect EC50
T2 construct: these cells express muscle-like nicotinic receptors; endogenous in cells; host or cells: TE671/RD (human embryonal rhabdomyosarcoma)
Source text: Determination of Interaction with Muscle
Human muscle activation was established on the human clonal line TE671/RD which is derived from an embryonal rhabdomyosarcoma (Stratton et al., Carcinogen, Vol. 10, pp. 899-905 (1989)). As evidenced through pharmacological (Lukas, J. Pharmacol. Exp. Ther., Vol. 251, pp. 175-182 (1989)), electrophysiological (Oswald et al., Neurosci. Lett., Vol. 96, pp. 207-212 (1989)), and molecular biological studies (Luther et al., J. Neurosci., Vol. 9, pp. 1082-1096 (1989)) these cells express muscle-like nicotinic receptors. Nicotinic acetylcholine receptor (nAChR) function was assayed using ^86 Rb^+ efflux according to a method described by Lukas et al., Anal. Biochem., Vol. 175, pp. 212-218 (1988). Dose-response curves were plotted and the concentration resulting in half maximal activation of specific ion flux through nicotinic receptors determined for human muscle and rat ganglionic preparations (EC50).
as §1, with “Dose-response curves were plotted and the concentration resulting in half maximal activation of specific ion flux through nicotinic receptors determined for human muscle and rat ganglionic preparations (EC50).” left out

T1 sequence (P04757 26-499): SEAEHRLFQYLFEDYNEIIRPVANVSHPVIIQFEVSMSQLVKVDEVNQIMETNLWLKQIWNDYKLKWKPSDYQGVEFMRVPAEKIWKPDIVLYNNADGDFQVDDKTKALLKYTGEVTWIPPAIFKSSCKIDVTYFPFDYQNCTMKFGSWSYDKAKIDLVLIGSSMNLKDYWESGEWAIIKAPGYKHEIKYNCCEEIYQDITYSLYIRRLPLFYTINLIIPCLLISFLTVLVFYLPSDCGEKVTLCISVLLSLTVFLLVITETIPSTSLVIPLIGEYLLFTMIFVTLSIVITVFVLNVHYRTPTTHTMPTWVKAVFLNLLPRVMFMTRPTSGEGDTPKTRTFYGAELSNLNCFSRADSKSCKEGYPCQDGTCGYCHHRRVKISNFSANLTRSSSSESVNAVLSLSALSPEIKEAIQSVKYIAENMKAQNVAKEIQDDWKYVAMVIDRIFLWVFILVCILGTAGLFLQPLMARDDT
T1 sequence (P12392 21-495): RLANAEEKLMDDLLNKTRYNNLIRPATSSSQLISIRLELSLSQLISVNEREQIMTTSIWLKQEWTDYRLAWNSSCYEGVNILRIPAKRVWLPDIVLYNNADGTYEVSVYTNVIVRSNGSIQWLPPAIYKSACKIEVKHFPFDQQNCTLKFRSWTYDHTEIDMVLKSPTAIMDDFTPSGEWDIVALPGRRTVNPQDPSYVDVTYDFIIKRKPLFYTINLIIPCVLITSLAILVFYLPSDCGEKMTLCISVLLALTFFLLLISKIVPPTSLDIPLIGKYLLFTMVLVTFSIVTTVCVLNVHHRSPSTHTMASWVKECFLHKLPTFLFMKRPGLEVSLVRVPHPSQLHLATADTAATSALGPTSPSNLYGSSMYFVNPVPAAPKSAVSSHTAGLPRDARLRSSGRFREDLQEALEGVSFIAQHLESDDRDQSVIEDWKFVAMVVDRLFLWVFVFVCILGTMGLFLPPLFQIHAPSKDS
T2 sequence (Q07001 22-517): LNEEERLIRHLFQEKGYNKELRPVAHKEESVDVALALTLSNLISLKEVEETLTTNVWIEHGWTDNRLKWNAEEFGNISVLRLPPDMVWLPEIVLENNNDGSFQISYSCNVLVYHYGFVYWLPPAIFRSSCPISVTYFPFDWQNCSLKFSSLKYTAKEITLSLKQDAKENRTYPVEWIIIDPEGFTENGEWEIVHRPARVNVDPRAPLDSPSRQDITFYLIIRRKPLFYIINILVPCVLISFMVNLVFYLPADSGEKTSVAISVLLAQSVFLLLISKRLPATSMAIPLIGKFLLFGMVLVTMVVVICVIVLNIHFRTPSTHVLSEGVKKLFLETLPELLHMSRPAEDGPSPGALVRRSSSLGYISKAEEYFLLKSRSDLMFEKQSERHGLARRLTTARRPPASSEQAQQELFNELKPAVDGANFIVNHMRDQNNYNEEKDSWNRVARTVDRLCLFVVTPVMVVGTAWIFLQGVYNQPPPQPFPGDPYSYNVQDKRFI
T2 sequence (P07510 23-517): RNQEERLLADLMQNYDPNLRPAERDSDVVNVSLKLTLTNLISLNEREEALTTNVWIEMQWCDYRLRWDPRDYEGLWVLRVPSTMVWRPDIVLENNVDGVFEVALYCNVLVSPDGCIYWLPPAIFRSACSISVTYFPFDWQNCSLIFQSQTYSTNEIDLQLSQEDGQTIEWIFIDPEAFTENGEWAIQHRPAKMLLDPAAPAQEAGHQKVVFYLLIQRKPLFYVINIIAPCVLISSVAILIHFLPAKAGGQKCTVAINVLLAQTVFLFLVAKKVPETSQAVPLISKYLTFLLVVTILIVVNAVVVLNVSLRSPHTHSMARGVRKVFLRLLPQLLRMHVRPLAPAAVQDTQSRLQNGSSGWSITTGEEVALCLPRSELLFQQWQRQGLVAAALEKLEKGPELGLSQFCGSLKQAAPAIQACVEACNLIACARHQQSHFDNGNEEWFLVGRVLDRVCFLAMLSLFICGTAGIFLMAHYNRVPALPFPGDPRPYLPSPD
T2 sequence (P11230 24-501, further chain): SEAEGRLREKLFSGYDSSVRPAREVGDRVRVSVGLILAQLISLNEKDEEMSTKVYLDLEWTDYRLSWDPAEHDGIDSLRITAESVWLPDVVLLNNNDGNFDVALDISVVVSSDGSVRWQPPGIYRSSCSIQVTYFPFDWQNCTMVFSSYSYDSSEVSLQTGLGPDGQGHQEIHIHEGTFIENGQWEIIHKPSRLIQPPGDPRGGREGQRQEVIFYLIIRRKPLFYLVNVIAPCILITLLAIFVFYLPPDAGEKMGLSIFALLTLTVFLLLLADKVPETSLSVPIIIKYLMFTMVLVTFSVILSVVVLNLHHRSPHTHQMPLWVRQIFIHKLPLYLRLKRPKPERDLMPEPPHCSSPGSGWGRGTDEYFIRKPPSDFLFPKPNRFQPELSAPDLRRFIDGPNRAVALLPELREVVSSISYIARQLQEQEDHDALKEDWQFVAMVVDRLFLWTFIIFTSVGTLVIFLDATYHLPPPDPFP
T2 sequence (P02708 21-457): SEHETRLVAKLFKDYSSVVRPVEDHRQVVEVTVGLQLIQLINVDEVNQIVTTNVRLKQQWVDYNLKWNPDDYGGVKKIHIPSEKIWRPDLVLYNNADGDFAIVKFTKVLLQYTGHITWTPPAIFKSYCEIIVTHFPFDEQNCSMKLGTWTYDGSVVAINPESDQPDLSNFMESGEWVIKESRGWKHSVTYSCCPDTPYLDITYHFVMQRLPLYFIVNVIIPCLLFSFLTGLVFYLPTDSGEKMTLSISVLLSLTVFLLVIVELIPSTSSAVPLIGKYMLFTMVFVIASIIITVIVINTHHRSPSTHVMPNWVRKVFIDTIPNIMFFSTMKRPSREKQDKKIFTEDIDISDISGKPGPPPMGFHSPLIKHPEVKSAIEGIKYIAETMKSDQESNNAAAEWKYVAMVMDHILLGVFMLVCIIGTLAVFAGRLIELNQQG

SMILES	Ki (nicotinic receptors) [nM]	EC50 [1] [nM]	Receptor Activation Emax [1] [%]	EC50 [2] [nM]	Dopamine Release Emax [2] [%]	Emax ([3]; PC-12, read-out: Ganglion Effect Emax) [%]	Ganglion Effect Emax [3] [%]	EC50 [4] [nM]
CCOc1cncc(/C=C/CCNC)c1 [Sample No. 1, (E)-N-methyl-4-[3-(5-ethoxypyridin)yl]-3-buten-1-amine]	9	269	67	287	124	0	–	–
CNC(C)C/C=C/c1cccnc1 (centres unmarked) [Sample No. 2, (E)-N-methyl-5-(3-pyridinyl)-4-penten-2-amine]	82	1700	35	21400	182	–	6	–
CNCC/C=C/c1cncc(OC)c1 [Sample No. 3, (E)-N-methyl-4-[3-(5-methoxypyridin)yl]-3-buten-1-amine]	7	470	62	2340	106	–	0	–
CN1CCC[C@H]1c1cccnc1 [Sample No. C-1, (S)--(-)--nicotine, reference compound]	–	–	87	100	100	–	–	80000
CNCC/C=C/c1cccnc1 [Sample No. C-2, (E)-metanicotine, reference compound]	–	732	79	1160	81	–	–	–

From US5616716A, “(3-(5-ethoxypyridin)yl)-alkenyl 1 amine compounds” (priority 1996, dated 1997)
